Source: patent US6506760B1, “Substituted hydrazinyl heteroaromatic inhibitors of thrombin” (Corvas International, Inc., priority 2000, dated 2003)
Where two headings read alike, the source gives them in different places.

Key:
Type in all cases: biochemical
human α-thrombin = human α-thrombin (Homo sapiens, UniProt P00734); experiment: Thrombin (fIIa) chromogenic assay, IC50
Factor Xa = target: T1, Factor Xa (Homo sapiens, UniProt P00742); experiment: Factor Xa chromogenic assay, IC50; details: 30 min incubation; read-out: fxa IC50 (30 min)
T1 construct: purchased Enzyme Research Laboratories, Inc. (South Bend, Ind.)
T1 sequence (P00742 235-488 limits assumed): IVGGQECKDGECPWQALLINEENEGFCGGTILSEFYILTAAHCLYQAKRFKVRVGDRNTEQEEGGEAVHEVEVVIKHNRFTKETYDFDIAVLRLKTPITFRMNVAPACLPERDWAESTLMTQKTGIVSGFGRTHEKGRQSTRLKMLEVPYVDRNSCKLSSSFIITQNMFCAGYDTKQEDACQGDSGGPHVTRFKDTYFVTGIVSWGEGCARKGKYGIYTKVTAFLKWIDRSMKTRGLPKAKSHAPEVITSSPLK
T1 sequence (P00742 41-179 partner limits assumed): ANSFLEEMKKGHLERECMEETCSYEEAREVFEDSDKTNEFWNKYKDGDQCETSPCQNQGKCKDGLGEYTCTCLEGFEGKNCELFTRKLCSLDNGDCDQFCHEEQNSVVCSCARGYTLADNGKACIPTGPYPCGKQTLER
Protocol: (§1) The ability of compounds of the present invention to act as a selective inhibitor of thrombin activity was assessed by determining the concentration of test-compound which inhibited the activity of this enzyme by 50%, (IC50), and comparing this value to that determined for all or some of the following related serine proteases: recombinant tissue plasminogen activator (rt-PA), plasmin, activated protein C, chymotrypsin, factor Xa and trypsin.
(§2) The buffer used for all assays was HBSA (10 mM HEPES, pH 7.5, 150 mM sodium chloride, 0.1% bovine serum albumin).
(§3) The assay for IC50 determinations was conducted by combining in appropriate wells of a Corning microtiter plate, 50 microliters of HBSA, 50 microliters of the test compound at a specified concentration (covering a broad concentration range) diluted in HBSA (or HBSA alone for V0 (uninhibited velocity) measurement), and 50 microliters of the enzyme diluted in HBSA. Following a 30 minute incubation at ambient temperature, 50 microliters of the substrate at the concentrations specified below were added to the wells, yielding a final total volume of 200 microliters. The initial velocity of chromogenic substrate hydrolysis was measured by the change in absorbance at 405 nm using a Thermo Max® Kinetic Microplate Reader over a 5 minute period in which less than 5% of the added substrate was utilized. The concentration of added inhibitor which caused a 50% decrease in the initial rate of hydrolysis was defined as the IC50 value.
Factor Xa catalytic activity was determined using the chromogenic substrate S-2765 (N-benzyloxycarbonyl-D-arginine-L-glycine-L-arginine-p-n itroaniline ), obtained from DiaPharma Group (Franklin, Ohio). All substrates were reconstituted in deionized water prior to use. […] Purified human Factor X was obtained from Enzyme Research Laboratories, Inc. (South Bend, Ind.) and Factor Xa (FXa) was activated and prepared from it as described [Bock, P. E., Craig, P. A., Olson, S. T., and Singh, P. Arch, Biochem. Biophys, 273:375-388 (1989)]. The enzyme was diluted into HBSA prior to assay in which the final concentration was 0.25 nM.

human plasmin = human plasmin (Homo sapiens, UniProt P00747); experiment: Plasmin chromogenic assay, IC50; details: 30 min incubation
Sequence of human plasmin (P00747 581-810 limits assumed): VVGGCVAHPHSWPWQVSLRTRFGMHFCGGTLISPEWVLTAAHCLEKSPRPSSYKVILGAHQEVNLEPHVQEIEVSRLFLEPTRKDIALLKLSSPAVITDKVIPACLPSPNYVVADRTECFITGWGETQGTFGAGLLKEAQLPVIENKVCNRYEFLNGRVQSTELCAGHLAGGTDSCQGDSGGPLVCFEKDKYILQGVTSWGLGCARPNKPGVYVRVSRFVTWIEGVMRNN
Sequence of human plasmin (P00747 97-580 partner limits assumed): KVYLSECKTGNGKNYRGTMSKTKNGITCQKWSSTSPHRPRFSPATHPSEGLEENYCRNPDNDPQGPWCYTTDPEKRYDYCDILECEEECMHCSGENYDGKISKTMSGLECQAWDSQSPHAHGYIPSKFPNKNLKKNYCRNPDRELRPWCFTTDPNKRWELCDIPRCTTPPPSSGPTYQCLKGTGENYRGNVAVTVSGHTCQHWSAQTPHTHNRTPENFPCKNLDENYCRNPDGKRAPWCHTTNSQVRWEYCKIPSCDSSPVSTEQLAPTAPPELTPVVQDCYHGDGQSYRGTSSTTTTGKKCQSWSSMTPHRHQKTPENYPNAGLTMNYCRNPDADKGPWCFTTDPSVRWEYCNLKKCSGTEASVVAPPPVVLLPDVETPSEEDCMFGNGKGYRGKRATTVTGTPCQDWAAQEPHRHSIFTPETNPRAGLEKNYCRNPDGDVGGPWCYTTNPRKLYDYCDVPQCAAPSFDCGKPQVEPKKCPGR
Protocol: as §1, §2, §3
Plasmin catalytic activity was determined using the chromogenic substrate, S-2366 [L-pyroglutamyl-L-prolyl-L-arginine-p-nitroaniline hydrochloride], which was obtained from DiaPharma group. The substrate was made up in deionized water followed by dilution in HBSA prior to the assay in which the final concentration was 300 micromolar (about 2.5-times Km). Purified human plasmin was obtained from Enzyme Research Laboratories, Inc. The enzyme was diluted into HBSA prior to assay in which the final concentration was 1.0 nM.

[1] = target: T2, bovine pancreatic trypsin (Bos taurus, UniProt P00760); experiment: Trypsin chromogenic assay, IC50; details: 30 min incubation
T2 construct: bovine pancreatic trypsin was obtained from Worthington Biochemical Corp; purchased Worthington Biochemical Corp. TRL3; host or cells: bovine pancreas
T2 sequence (P00760 24-246): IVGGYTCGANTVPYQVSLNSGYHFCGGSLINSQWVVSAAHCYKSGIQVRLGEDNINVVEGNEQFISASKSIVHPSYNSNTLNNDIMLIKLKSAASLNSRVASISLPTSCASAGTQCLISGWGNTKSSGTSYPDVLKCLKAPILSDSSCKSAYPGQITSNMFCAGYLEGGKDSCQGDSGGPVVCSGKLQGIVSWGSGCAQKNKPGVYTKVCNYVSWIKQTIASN
Protocol: as §1, §2, §3
Trypsin catalytic activity was determined using the chromogenic substrate, S-2222 (benzoyl-L-isoleucine-L-glutamic acid-[gamma-methyl ester]-L-arginine-p-nitroanilide), which was obtained from DiaPharma Group. […] Purified (3×-crystallized; TRL3) bovine pancreatic trypsin was obtained from Worthington Biochemical Corp. The enzyme was reconstituted in deionized water and diluted into HBSA prior to assay in which the final concentration was 0.5 nM.

[2] = 0 min incubation of enzyme with inhibitor, read-out: fIIa IC50 (0 min)
[3] = 30 min incubation of enzyme with inhibitor, read-out: fIIa IC50 (30 min)

IC50 (human α-thrombin; [2]) [µM]	IC50 (human α-thrombin; [3]) [µM]	IC50 (Factor Xa) [µM]	IC50 (human plasmin) [µM]	IC50 [1] [µM]	Structure (SMILES)
≤ 0.1	≤ 0.1	≥ 100	≥ 100	2.5 to 100	C#CCOC(=O)N(C)Nc1ncc(C)n(CC(=O)NCc2ccc(N)nc2C)c1=O [Example 59, 1-[5-(2-Amino-6-methylpyridyl)methylcarboxamidomethyl]-6-methyl-3-[2-methyl-2-(propargyloxycarbonyl)hydrazino]pyrazinone, Hydrotrifluoroacetate]
≤ 0.1	≤ 0.1	2.5 to 100	≥ 100	≥ 100	Cc1nc(N)ccc1CNC(=O)Cn1c(C)cnc(NN(CCc2ccccc2)CCc2ccccc2)c1=O [Example 60, 1-[5-(2-Amino-6-methylpyridyl)methylcarboxamidomethyl]-6-methyl-3-[2,2-di(2-phenylethyl)hydrazino]pyrazinone, Hydrotrifluoroacetate]
